Reference: patent publication US20160081947A1, “SELECTIVE LSD1 AND DUAL LSD1/MAO-B INHIBITORS FOR MODULATING DISEASES ASSOCIATED WITH ALTERATIONS IN PROTEIN CONFORMATION” (ORYZON GENOMICS S.A., priority 2010, published 2016)
Entries after “also recorded” stand apart in the source; their conditions may differ. Like-named read-outs stand apart in the source and are kept apart here. Blank lines part the entries; values can stand above or below the molecule they belong to.

Experiments:
[1] = biological target: T1, Human recombinant monoamine oxidase MAO-A (Homo sapiens, UniProt P21397); experiment: MAO-A inhibition assay (kynuramine fluorescence); type: biochemical
T1 construct: purchased Sigma Aldrich
T1 sequence (P21397 1-527): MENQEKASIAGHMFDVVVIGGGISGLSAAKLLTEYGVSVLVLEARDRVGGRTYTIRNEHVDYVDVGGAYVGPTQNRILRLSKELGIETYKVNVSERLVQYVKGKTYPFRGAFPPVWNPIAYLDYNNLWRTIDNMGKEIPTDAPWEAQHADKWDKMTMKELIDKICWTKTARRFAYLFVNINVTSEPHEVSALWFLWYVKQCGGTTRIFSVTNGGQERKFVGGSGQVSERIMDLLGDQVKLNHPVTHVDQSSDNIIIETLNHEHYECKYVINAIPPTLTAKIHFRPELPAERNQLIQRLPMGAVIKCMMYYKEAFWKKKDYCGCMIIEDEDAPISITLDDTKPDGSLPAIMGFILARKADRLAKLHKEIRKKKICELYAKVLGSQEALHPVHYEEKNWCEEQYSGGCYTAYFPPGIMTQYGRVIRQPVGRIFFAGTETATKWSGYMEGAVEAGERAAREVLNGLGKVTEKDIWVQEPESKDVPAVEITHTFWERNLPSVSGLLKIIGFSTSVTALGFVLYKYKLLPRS
Source text: Human recombinant monoamine oxidase proteins MAO-A and MAO-B were purchased from Sigma Aldrich. MAOs catalyze the oxidative deamination of primary, secondary and tertiary amines. In order to monitor MAO enzymatic activities and/or their inhibition rate by inhibitor(s) of interest, a fluorescent-based (inhibitor)-screening assay was set up. 3-(2-Aminophenyl)-3-oxopropanamine (kynuramine dihydrobromide, Sigma Aldrich), a non fluorescent compound was chosen as a substrate. Kynuramine is a non-specific substrate for both MAOs activities. While undergoing oxidative deamination by MAO activities, kynuramine is converted into 4-hydroxyquinoline (4-HQ), a resulting fluorescent product.
The monoamine oxidase activity was estimated by measuring the conversion of kynuramine into 4-hydroxyquinoline. Assays were conducted in 96-well black plates with clear bottom (Corning) in a final volume of 100 μL. The assay buffer was 100 mM HEPES, pH 7.5. Each experiment was performed in triplicate within the same experiment. […] The conversion of kynuramine to 4-hydroxyquinoline, was monitored by fluorescence (excitation at 320 nm, emission at 360 nm) using a microplate reader (Infinite 200, Tecan). Arbitrary units were used to measure levels of fluorescence produced in the absence and/or in the presence of inhibitor. […] The Ki (TC50) of each inhibitor was determined at Vmax/2.

mouse haloperidol model = experiment: Mouse haloperidol model of catalepsy; type: in vivo; conditions: control caffeine
Source text: See, e.g., East et al. (2010), Bioorg. Med Chem. Lett., August 15; 20(16):4901-5, Epub 2010 Jun. 25.

R6/2 mice [2] = experiment: Longevity / survival study in R6/2 mouse; conditions: for survival versus vehicle and sertraline treated animals: 10 mg/kg
Protocol: The solutions are made and stored according to instructions provided by the sponsor (storage conditions and expiration day of solution).
Body weight is measured starting at age of four weeks and two times per week on the same day (i.e., Monday and Thursday) until end of the study. For convenience this is done just prior to animals receiving doses for those days. Animals are monitored twice-a-day by laboratory personnel (8 am and 4 pm) for “survival.” It is most optimal to measure “true survival” that is when the mouse has no detectable heartbeat. Since IACUC restrictions prevent this then using a definable and quantifiable endpoint for “survival” need to be used (see section 2.7 humane end-points). […] For instance, body temperature changes can drop just before death but many R6/2 mice show spontaneous death without preceding body temperature changes. More easily measured is body weight loss. […] Again mice that die spontaneously may not show such acute body weight changes. For these alternative measures combining these “survival” data (body weight or temperature decrease) with “survival” of spontaneous death mice (age found dead in a cage) is suitable.

R6/2 mice [3] = experiment: Two-choice swim test in R6/2 mouse; type: in vivo; conditions: transgenic R6/2 mice
Source text: Eighty male and female R6/2 mice and 20 male and female wild-type littermate control mice (F1 generation) will be bred by Cerebricon at FELASA compliant National Animal Facility Center Kuopio by mating (F0 generation) WT males (C57BL6CBA F1 hybrid, JAX) with ovarian transferred (01) TG females (JAX). Breeder animals receive igloos instead of play tunnels, nylabone and cotton nestlets and use Purina diet 5008. Upon weaning, pups receive Purina diet 5001.
Sertraline will be made fresh daily by diluting to 1% TWEEN® 80 in ddH2°.
Two-Choice Swim Test: The two-choice swim test is performed at age week 9. The swim tank (dimensions: 70 cm×30 cm×30 cm) is filled with water (26±1° C.) no higher than 1 cm from the top of a hidden escape platform. The hidden cylindrical platform (diameter, 6.0 cm, height,˜9 cm) is placed either at right or left end of the tank. During acquisition of the task, each mouse is given six training trials per day to swim towards or away from the right end (counterbalanced across subjects) to escape onto the platform. […] A choice is recorded when a mouse moves towards one end and swims beyond 20 cm from the center. If the mouse fails to make a choice within about 15 minutes a “no choice” is recorded. […] In all trials, choice, latency and “no choice” are recorded.

SH-SY5Y cells = experiment: Western blot for dimethylated H3K4 in SH-SY5Y cells; type: cell-based
Source text: B-actin was used as a loading control.

[4] = Body weight loss in chronically treated R6/2 mouse; type: in vivo; conditions: R6/2 mice, 5 mg/kg or 10 mg/kg IP per day, chronic
Source text: More easily measured is body weight loss.
In the R6/2 mouse study described above the weight of the animals were monitored to determine if the LSD1 or LSD1/MAO-B dual inhibitor cause weight loss in chronically treated animals. […] .

[5] = tested on: Drosophila melanogaster expressing HD-Q120; experiment: Eye (rhabdomere) degeneration in Huntington disease fly line B-8533; type: in vivo; conditions: 1 μM and 5 μM
Source text: The eye of the fruit fly, Drosophila melanogaster, provides an ideal model system for studying neuronal survival. Each eye consists of approximately 800 units called ommatidia arranged in a regular pattern and the photoreceptors that compose each ommatidium exist in an ordered trapezoidal array. The presence and organization of these cells can be readily assessed using a technique called optical neutralization of the cornea (Franceschini and Kirschfeld, 1971).
This technique is being used in a screen for compounds that can rescue the neurodegenerative phenotype of a Drosophila model of Huntingtons disease (HD), fly line B-8533 (Jackson et al., 1998). This line contains a P-element construct inserted on the second chromosome, P{w+ gmr.HD-Q120)}. The construct contains a w+ visible eye-color marker, which enables confirmation of the presence of the insertion. […]
The now three- to ten-day-old flies are added to the vials (six to ten females and three males in each), incubated at 25° for seven to ten days. […] F1 eclosion-start date is noted and males and females are counted. […] Ommatidia are scored for number of visible rhabdomeres (0 to 7). […] Significance can be determined by the Mann-Whitney U-test or one-tailed student's T-test. […]

IC50 ([1]; read-out: MAO-A IC50): > 1000 nM
Compound: CN1CCN(C(=O)CNC2CC2c2ccc(C3CC3)cc2)CC1 (stereo not shown) [Selective-2]

Compound: NC(=O)CNC1CC1c1ccc(OCc2ccccc2)cc1 (stereo not shown) [Compound Dual-1]
rescue of toxin induced deficit (catalepsy) (mouse haloperidol model): rescue the toxin induced deficit in a manner similar to or better than control compound caffeine or no treatment
longevity (overall survival) (R6/2 mice [2]; R6/2 mouse study): can increase the longevity
survival versus vehicle and sertraline treated animals (R6/2 mice [2]; female R6/2 mice): survived longer
survival versus vehicle and sertraline treated animals (R6/2 mice [2]; male and female R6/2 mice): survived longer
other parameters of two-choice swim test (R6/2 mice [3]; 5 mg/kg ip): clear trend (NS)
performance in two-choice swim test (latency to find the platform) (R6/2 mice [3]; 5 mg/kg ip once-a-day, age week 9, 5 mg/kg): significantly improved the performance; also recorded: improved response in the two-choice swim test
levels of dimethylated H3K4 (western blot) (SH-SY5Y cells; 100 μM, one, two and three days): increases H3K4 methylation in cells in a time dependent manner; also recorded: increases levels of dimethylated H3K4 in cells in a time dependent manner
potency at increasing global dimethylated H3K4 levels as compared to tranylcypromine (SH-SY5Y cells; Dual-1 100 μM vs parnate 250 μM): ten-fold or more potent
body weight loss compared to transgenic animals treated with vehicle or sertraline [4]: caused no significant weight loss; also recorded: did not have substantially different weight losses

Compound: CN1CCN(C(=O)CNC2CC2c2ccc(OCc3ccccc3)cc2)CC1 (stereo not shown) [Compound Selective-1]
IC50 [1]: > 1000 nM
rhabdomere degeneration as compared to vehicle treated flies ([5]; day 2): reduced rhadomere degeneration
rescue of eye degeneration phenotype as compared to vehicle treated fly ([5]; day not stated): in a concentration dependent manner rescues the eye degeneration phenotype
